# Measured values reported in patent publication US5773423A (priority 1994, dated 1998).
# Where a name gives a salt, the structure may show the parent alone. Read-outs that look alike come from different tables or passages of the source.
# Columns and labels:
# [1] = molecular target: T1, A1 receptors from rat brain membranes (Rattus norvegicus, UniProt P25099); assay: biochemical; type: binding; details: for inhibition at 100 µM: read-out: A1 percent displacement; for Ki: rat brain membranes
# T1 construct: Rat cerebral cortical and striatal membranes were prepared; from tissue; host or cells: rat brain (cerebral cortical) membranes
# T1 sequence (P25099 1-326): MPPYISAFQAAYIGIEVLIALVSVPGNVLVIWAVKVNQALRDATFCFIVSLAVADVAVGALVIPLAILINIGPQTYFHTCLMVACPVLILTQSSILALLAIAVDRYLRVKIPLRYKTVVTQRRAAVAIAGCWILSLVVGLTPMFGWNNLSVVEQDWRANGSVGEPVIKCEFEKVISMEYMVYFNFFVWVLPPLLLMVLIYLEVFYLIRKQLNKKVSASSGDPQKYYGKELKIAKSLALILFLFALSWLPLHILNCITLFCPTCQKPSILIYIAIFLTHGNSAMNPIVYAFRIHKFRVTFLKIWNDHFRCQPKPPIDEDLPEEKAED
# [2] = molecular target: T2, A2 receptors from rat striatal membranes (Rattus norvegicus, UniProt P30543); assay: Radioligand binding at A2 (A2a) receptors, displacement of [3H]CGS 21680 (or [3H]NECA with 50 nM CPA) from rat striatal membranes; details: for Ki: rat striatal membranes, displacement of [3H]CGS 21680 (or [3H]NECA + 50 nM CPA), read-out: A2 affinity Ki
# T2 construct: Rat cerebral cortical and striatal membranes were prepared; from tissue; host or cells: rat striatal membranes
# T2 sequence (P30543 whole entry): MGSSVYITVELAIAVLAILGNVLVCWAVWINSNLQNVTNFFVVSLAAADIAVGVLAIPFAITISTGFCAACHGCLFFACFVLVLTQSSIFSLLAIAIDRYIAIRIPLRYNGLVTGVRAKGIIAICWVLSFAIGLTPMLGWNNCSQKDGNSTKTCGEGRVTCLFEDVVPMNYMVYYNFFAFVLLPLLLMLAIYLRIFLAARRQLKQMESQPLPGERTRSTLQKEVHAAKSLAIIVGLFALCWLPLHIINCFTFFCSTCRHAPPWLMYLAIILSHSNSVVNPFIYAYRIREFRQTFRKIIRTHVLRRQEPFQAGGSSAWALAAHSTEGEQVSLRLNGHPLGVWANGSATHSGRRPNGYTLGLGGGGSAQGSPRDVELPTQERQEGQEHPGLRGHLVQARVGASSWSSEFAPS
# [3] = at 100 μM, read-out: A2 percent displacement
# [4] = displacement of [3H]PIA (or [3H]CHA), read-out: A1 affinity Ki
# [5] = read-out: percent displacement of radioligand at A2
# [6] = read-out: A2 percent displacement
Ki [2],"Ki [1, 4]",Structure (SMILES),further results
0.101 ± 0.019 µM,–,"CCNC(=O)[C@H]1O[C@@H](n2cnc3c(N)[n+]([O-])cnc32)[C@H](O)[C@@H]1O [Compound 35, adenosine-5'-N-ethyluronamide-N^1-oxide]",–
2.46 µM,–,"CNC(=O)[C@H]1O[C@@H](n2cnc3c(NCc4ccc(Br)cc4)ncnc32)[C@H](O)[C@@H]1O [Compound 49, N^6-(4-bromobenzyl)-NMCA]",–
40.1 µM,7.6 µM,"CN(Cc1ccccc1)c1ncnc2c1ncn2[C@@H]1O[C@H](CO)[C@@H](O)[C@H]1O [Compound 30, N^6 -benzyl-N^6 -methyladenosine, reference compound]",–
–,42.7 µM,"NC[C@H]1O[C@@H](n2cnc3c(N)ncnc32)[C@H](O)[C@@H]1O [Compound 74, 5'-deoxy-5'-aminoadenosine, reference compound]",–
8.5 µM,27.8 µM,"Nc1nc2c(ncn2[C@@H]2O[C@H](CO)[C@@H](O)[C@H]2O)c(=O)[nH]1 [Compound 86, guanosine, reference compound]",–
50 µM,16.7 µM,"OC[C@H]1O[C@@H](n2cnc3c(O)ncnc32)[C@H](O)[C@@H]1O [Compound 85, inosine, reference compound]",–
0.415 ± 0.033 µM,0.322 ± 0.023 µM,"CNC(=O)[C@H]1O[C@@H](n2cnc3c(NCc4cccc(C)c4)ncnc32)[C@H](O)[C@@H]1O [Compound 46, N^6-(3-methylbenzyl)-NMCA]",–
2.73 µM,–,"CNC(=O)[C@H]1O[C@@H](n2cnc3c(NCc4ccc(Cl)cc4)ncnc32)[C@H](O)[C@@H]1O [Compound 48, N^6-(4-chlorobenzyl)-NMCA]",–
48.5 µM,15 µM,"Nc1nc(SCc2ccc([N+](=O)[O-])cc2)c2ncn([C@@H]3O[C@H](CO)[C@@H](O)[C@H]3O)c2n1 [Compound 87, (4-nitrobenzyl)-6-thioguanosine, reference compound]",–
6.89 µM,1.14 µM,"CC(C)CSC[C@H]1O[C@@H](n2cnc3c(N)ncnc32)[C@H](O)[C@@H]1O [Compound 76, 5'-deoxy-5'-isobutylthio adenosine, reference compound]",–
0.423 ± 0.046 µM,0.58 ± 0.099 µM,"NC(=O)[C@H]1O[C@@H](n2cnc3c(NCc4ccccc4)ncnc32)[C@H](O)[C@@H]1O [Compound 39, N^6-benzyl-5'-carboxamidoadenosine]",–
0.055 ± 0.006 µM,–,"O=C(NC1CC1)[C@H]1O[C@@H](n2cnc3c(NCc4ccccc4)ncnc32)[C@H](O)[C@@H]1O [Compound 24, N^6-benzyladenosine-5'-N-cyclopropyluronamide]",–
0.316 ± 0.043 µM,–,"CNC(=O)[C@H]1O[C@@H](n2cnc3c(NCc4ccc(N)c(I)c4)ncnc32)[C@H](O)[C@@H]1O [Compound 51, N^6-(4-amino-3-iodobenzyl)adenosine-5'-N-methyluronamide]",displacement of radioligand from A2a (in words) [2]: not A1 or A2a receptors
59.8 µM,–,"Nc1nccc2c1ncn2[C@@H]1O[C@H](CO)[C@@H](O)[C@H]1O [Compound 32, 3-deazaadenosine, reference compound]",–
0.794 ± 0.118 µM,–,"CNC(=O)[C@H]1O[C@@H](n2cnc3c(NCc4cccc(N)c4)ncnc32)[C@H](O)[C@@H]1O [Compound 44, N^6-(3-aminobenzyl)adenosine-5'-N-methyluronamide]",–
1.65 µM,–,"CCNC(=O)[C@H]1O[C@@H](n2cnc3c(N[C@@H](C)c4ccccc4)ncnc32)[C@H](O)[C@@H]1O [Compound 56, N^6 -(S-phenylethyl)-NECA]",–

# Second part, the molecule before the results:
Structure (SMILES),Ki [2],"Ki [1, 4]",further results
"Nc1ncnc2c1ncn2[C@]1(CO)O[C@H](CO)[C@@H](O)[C@H]1O [Compound 80, β-D-psicofuranosyladenine, reference compound]",–,–,"inhibition at 100 µM [1]: 36.1 ± 4.9%; inhibition at 100 µM [2, 3]: 51.5 ± 7.4%"
"CCNC(=O)[C@H]1O[C@@H](n2cnc3c(NCc4cccc(C)c4)ncnc32)[C@H](O)[C@@H]1O [Compound 64, N^6-(3-methylbenzyl)-NECA]",0.0177 ± 0.0018 µM,0.0365 ± 0.0012 µM,–
"CCNC(=O)[C@H]1O[C@@H](n2cnc3c(NCc4cccc(I)c4)ncnc32)[C@H](O)[C@@H]1O [Compound 60, N^6-(3-iodobenzyl)-NECA]",0.0072 ± 0.0006 µM,0.0077 ± 0.0009 µM,–
"CCCCn1c(=O)c2[nH]cnc2n(CCCC)c1=O [Compound 109, 1,3-di-n-butyl-xanthine, reference compound]",2.93 µM,–,–
"CNC(=O)[C@H]1O[C@@H](n2cnc3c(NCc4cccc([N+](=O)[O-])c4)ncnc32)[C@H](O)[C@@H]1O [Compound 43, N^6-(3-nitrobenzyl)-NMCA]",0.441 ± 0.045 µM,–,–
"CNC(=O)[C@H]1O[C@@H](n2cnc3c(NCc4cccc(S(=O)(=O)O)c4)ncnc32)[C@H](O)[C@@H]1O [Compound 52, N^6-(3-sulfobenzyl)-NMCA triethylammonium salt]",> 10 µM,> 10 µM,–
"CCCCCCn1c(=O)c2c(ncn2[C@@H]2O[C@H](CO)[C@@H](O)[C@H]2O)n(CCCCCC)c1=O [Example 64, 1,3-di-n-hexylxanthine-7-β-D-ribofuranoside]",–,–,"inhibition at 10 µM [2, 5]: 7.8%; inhibition at 100 µM [2, 5]: 69 ± 2%"
"CCNC(=O)[C@H]1O[C@@H](n2cnc3c(NCc4ccccc4[N+](=O)[O-])ncnc32)[C@H](O)[C@@H]1O [Compound 61, N^6-(2-nitrobenzyl)adenosine-5'-N-ethyluronamide]",0.024 ± 0.003 µM,0.031 ± 0.004 µM,–
"CNC(=O)[C@H]1O[C@@H](n2cnc3c(NCc4cccc(NC(C)=O)c4)ncnc32)[C@H](O)[C@@H]1O [Compound 45, N^6-(3-acetamidobenzyl)-NMCA]",–,7.37 µM,"inhibition at 100 µM [2, 6]: 12.5 ± 1.9%"
"CCNC(=O)[C@H]1O[C@@H](n2cnc3c(NCc4ccc(OC)cc4)ncnc32)[C@H](O)[C@@H]1O [Compound 67, N^6-(4-methoxybenzyl)adenosine-5'-N-ethyluronamide]",0.609 ± 0.034 µM,0.209 ± 0.03 µM,–
"CCCCCCn1c(=O)c2c(ncn2[C@@H]2O[C@H](C(=O)NC)[C@@H](O)[C@H]2O)n(CCCCCC)c1=O [Example 69, N-methyl 1,3-di-n-hexylxanthine-7-β-D-ribofuronamide]",–,–,"inhibition at 100 µM ([2]; Table 4, at 10^-4 M, read-out: percent displacement of radioligand at A2): 0%"
"Cn1c(=O)c2c(ncn2CCO)n(C)c1=O [Compound 116, 7-β-hydroxyethylT, reference compound]",17.4 µM,–,–
"Cn1cnc2[nH]c(=O)[nH]c(=O)c21 [Compound 101, 7-methylX, reference compound]",–,–,"inhibition at 100 µM ([1]; at 100 μM): 52.3 ± 7.9%; inhibition at 100 µM [2, 6]: 37.7 ± 4.9%"
"CCCCn1c(=O)c2c(ncn2[C@@H]2O[C@H](C(=O)NCC)[C@@H](O)[C@H]2O)n(CCCC)c1=O [Compound 126, N-ethyl 1,3-di-n-butylxanthine-7-β-D-ribofuronamide]",17 µM,7.5 µM,–
"Cn1c(=O)c2[nH]c(Cl)nc2n(C)c1=O [Compound 132, 8-chloroT, reference compound]",–,–,"inhibition at 100 µM ([1]; at 100 μM): 30.2 ± 6.7%; inhibition at 100 µM [2, 6]: 24.7 ± 3.9%"
"CCNC(=O)[C@H]1O[C@@H](n2cnc3c(NCc4cccc(OC)c4)ncnc32)[C@H](O)[C@@H]1O [Compound 66, N^6-(3-methoxybenzyl)-NECA]",0.038 ± 0.006 µM,0.069 ± 0.008 µM,–
"CCCCn1c(=O)c2c(ncn2[C@@H]2O[C@H](C(=O)OC)[C@@H](O)[C@H]2O)n(CCCC)c1=O [Compound 122, methyl 1,3-di-n-butylxanthine-7-β-D-ribofuronate]",–,–,"Ki ([1]; Table 4, [3H]PIA, read-out: Ki (A1)): 3.72 µM; inhibition at 3 µM [2, 5]: 0%"
"CNC(=O)[C@H]1O[C@@H](n2cnc3c(NCc4ccc(S(=O)(=O)O)cc4)ncnc32)[C@H](O)[C@@H]1O [Compound 53, N^6-(4-sulfobenzyl)adenosine-5'-N-methyluronamide triethylammonium salt]",–,–,"inhibition at 100 µM ([1]; at 100 μM): 0%; inhibition at 100 µM [2, 6]: 0%"
"Cn1c(=O)[nH]c(=O)c2[nH]cnc21 [Compound 100, 3-methylX, reference compound]",–,–,"inhibition at 100 µM [2, 6]: 38 ± 0.9%"
CCCCn1c(=O)c2c(ncn2[C@@H]2O[C@H](C(N)=O)[C@@H](O)[C@H]2O)n(CCCC)c1=O,–,–,"A2a affinity decrease vs 1,3-di-n-butylxanthine-7-β-D-ribofuranoside [2]: 2.8 fold"
"CCCCn1c(=O)c2c(ncn2[C@@H]2O[C@H](C(=O)NC)[C@@H](O)[C@H]2O)n(CCCC)c1=O [Compound 124, N-methyl 1,3-di-n-butylxanthine-7-β-D-ribofuronamide]",–,–,inhibition at 100 µM [1]: 30%
"CCCCCC[C@H]([C@H](C)O)n1cnc2c(N)ncnc21 (relative stereo) [Compound 96, erythro-9-(2-hydroxy-3-nonyl)adenine, reference compound]",–,–,"inhibition at 100 µM [2, 3]: 59.6 ± 2.8%"
"CCCCCn1c(=O)c2c(ncn2[C@@H]2O[C@H](C(=O)NC)[C@@H](O)[C@H]2O)n(CCCCC)c1=O [Example 68, N-methyl 1,3-di-n-pentylxanthine-7-β-D-ribofuronamide]",–,–,"inhibition at 100 µM [2, 5]: 2%"
"Cn1c(=O)c2ncn(C)c2n(C)c1=O [Compound 113, 1,3,9-trimethylX, reference compound]",–,–,"inhibition at 100 µM [2, 6]: 14.4 ± 5.7%"
"CNC(=O)[C@H]1O[C@@H](n2cnc3c(NCc4cccc(C(F)(F)F)c4)ncnc32)[C@H](O)[C@@H]1O [Compound 47, N^6-(3-trifluoromethylbenzyl)adenosine-5'-N-methyluronamide]",0.574 ± 0.049 µM,–,–
"O=c1c2[nH]cnc2n(Cc2ccccc2)c(=O)n1Cc1ccccc1 [Compound 111, 1,3-dibenzylX, reference compound]",–,–,"inhibition at 10 µM ([2]; at 10 μM, read-out: A2 percent displacement): 3.61 ± 0.94%"
